Patent publication US11091414B2, “Complexes of 1-methylcyclopropene with metal coordination polymer networks” (AGROFRESH INC., priority 2014, dated 2021)

Assays:
Type in all cases: physicochemical
[1] = Thermal stability by thermogravimetric analysis (TGA); settings: 10° C./min to 600° C. under nitrogen
Protocol: This Example illustrates the thermal stability of MCPN. Thermogravimetric analysis (TGA) was conducted to determine the temperature that causes structural change in MCPN. […] TGA data was collected on a TA Q5000 Analyzer with a temperature ramping rate of 10° C./min from room temperature to 600° C. under nitrogen gas flow.

[2] = Adsorption or inclusion level of 1-MCP in adsorbents/encapsulants (release in water, headspace GC)
Protocol: This Example provides specific examples of methods for adsorbing 1-MCP into a MCPN. Adsorption of 1-MCP was carried out using both a modified solid method (method A) and a solution-based method (method B), as disclosed herein. The general protocol in both methods included a dual-vessel system, where 1-MCP was generated in the first vessel, also referred to as the generation vessel, and the adsorption took place in the second vessel, also referred to as the adsorption vessel. Before adsorption, 50 mg of adsorbent was first dried in a vacuum oven at 100° C. overnight and sealed in the adsorption vessel. […]
This Example illustrates some of the differences between the MCPNs of the present disclosure and prior art encapsulants (cyclodextrins). […] The percentage adsorbed or encapsulated was quantified by taking 55 mg of A1 or E4 and mixed with 25 ml of water in 500 ml sealed glass bottles to release 1-MCP.
Headspace sample was collected and injected into gas chromatography using methods described in Mir, “Harvest Maturity, Storage Temperature and 1-MCP Application Frequency Alter Firmness Retention and Chlorophyll Fluorescence of “Redchief Delicious” Apples,” Journal of American society of horticultural science, 2001, 126(5): 618-624). […] The peak area was used to quantify the concentration.

[3] = Stability in water by powder X-ray diffraction; settings: soaked in water 1 hour, 5 hours, 20 hours
[4] = Release rate of 1-MCP by hydration with water (method C)
Protocol: This Example illustrates the release rate of 1-MCP from MCPNs and cyclodextrins. […] Encapsulation of sample S4 was carried out using methods A and D. Method C was used for the release of 1-MCP, where about 25 mg of S1 and S4 were hydrated with 25 mL of water in a 500 mL glass bottle under agitation. Headspace samples were withdrawn periodically to quantify the released 1-MCP.

Decomposing temperature [1]	Adsorption or inclusion level ([2]; 1-MCP loaded by method A (solid method))	Adsorption or inclusion level ([2]; 1-MCP loaded by method D (solution in pH 4.6 buffer, 50 mg S4/mL))	Time to complete release of 1-MCP ([4]; loaded by method A)	Time to complete release of 1-MCP ([4]; loaded by method D)	% Released ([4]; loaded by method D, 5 min)	% Released ([4]; loaded by method D, 15 min)	% Released ([4]; loaded by method D, 25 min)	% Released ([4]; loaded by method D, 40 min)	% Released ([4]; loaded by method D, 60 min)	SMILES	Change of X-ray pattern / structure after soaking in water [3]
280 °C	–	–	–	–	–	–	–	–	–	OC[C@H]1O[C@@H]2O[C@H]3[C@H](O)[C@@H](O)[C@@H](O[C@H]4[C@H](O)[C@@H](O)[C@@H](O[C@H]5[C@H](O)[C@@H](O)[C@@H](O[C@H]6[C@H](O)[C@@H](O)[C@@H](O[C@H]7[C@H](O)[C@@H](O)[C@@H](O[C@H]8[C@H](O)[C@@H](O)[C@@H](O[C@H]1[C@H](O)[C@H]2O)O[C@@H]8CO)O[C@@H]7CO)O[C@@H]6CO)O[C@@H]5CO)O[C@@H]4CO)O[C@@H]3CO [C-b, beta cyclodextrin]	–
280 °C	0.05%	2.46%	almost instantaneously	≤ 40 min	39%	62%	84%	100%	100%	OC[C@H]1O[C@@H]2O[C@H]3[C@H](O)[C@@H](O)[C@@H](O[C@H]4[C@H](O)[C@@H](O)[C@@H](O[C@H]5[C@H](O)[C@@H](O)[C@@H](O[C@H]6[C@H](O)[C@@H](O)[C@@H](O[C@H]7[C@H](O)[C@@H](O)[C@@H](O[C@H]1[C@H](O)[C@H]2O)O[C@@H]7CO)O[C@@H]6CO)O[C@@H]5CO)O[C@@H]4CO)O[C@@H]3CO [S4, Alpha cyclodextrin]	dramatic structure change after 1 hour soaking in water
